Experimental data reported in patent US20080138835A1 (priority 2004, published 2008).
Converted amounts (≈) assume the structure as drawn. Read-outs that look alike come from different tables or passages of the source.

How the values were obtained:
[1] = test system: S. aureus RN4220; assay: microbe, parasite or virus in culture; type: cell-based; details: for MIC: Staphylococcus aureus
[2] = test system: S. aureus; assay: microbe, parasite or virus in culture; type: cell-based; details: for MIC: Staphylococcus aureus
[3] = test system: S. aureus; type: cell-based
[4] = test system: S. aureus; assay: microbe, parasite or virus in culture; type: cell-based; details: Staphylococcus aureus
[5] = test system: staphylococci and streptococci; assay: organism not typed; type: cell-based
[6] = test system: S. aureus mutants; assay: microbe, parasite or virus in culture; type: cell-based; details: Staphylococcus aureus, ATCC43300
[7] = molecular target: S. aureus MetS (Staphylococcus aureus, UniProt P67579); assay: biochemical
Sequence of S. aureus MetS (P67579 whole entry): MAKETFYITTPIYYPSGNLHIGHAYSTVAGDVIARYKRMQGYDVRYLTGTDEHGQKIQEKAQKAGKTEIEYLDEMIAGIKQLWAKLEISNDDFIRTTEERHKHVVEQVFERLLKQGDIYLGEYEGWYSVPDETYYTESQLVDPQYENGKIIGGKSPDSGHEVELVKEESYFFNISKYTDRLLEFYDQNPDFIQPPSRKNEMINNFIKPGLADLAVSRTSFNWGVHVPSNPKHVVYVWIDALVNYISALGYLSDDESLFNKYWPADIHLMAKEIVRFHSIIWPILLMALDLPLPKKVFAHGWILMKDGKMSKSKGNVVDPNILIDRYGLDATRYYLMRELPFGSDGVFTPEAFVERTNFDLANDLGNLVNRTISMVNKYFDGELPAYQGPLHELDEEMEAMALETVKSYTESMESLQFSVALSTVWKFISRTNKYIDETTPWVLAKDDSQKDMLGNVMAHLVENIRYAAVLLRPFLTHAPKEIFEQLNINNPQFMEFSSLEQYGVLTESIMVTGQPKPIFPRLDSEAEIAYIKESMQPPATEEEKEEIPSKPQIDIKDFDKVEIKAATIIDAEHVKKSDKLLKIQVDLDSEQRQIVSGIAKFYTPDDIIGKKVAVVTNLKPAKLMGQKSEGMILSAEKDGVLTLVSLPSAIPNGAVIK

[8] = molecular target: H influenzae MetG (Haemophilus influenzae, UniProt P43828); assay: biochemical
Sequence of H influenzae MetG (P43828 whole entry): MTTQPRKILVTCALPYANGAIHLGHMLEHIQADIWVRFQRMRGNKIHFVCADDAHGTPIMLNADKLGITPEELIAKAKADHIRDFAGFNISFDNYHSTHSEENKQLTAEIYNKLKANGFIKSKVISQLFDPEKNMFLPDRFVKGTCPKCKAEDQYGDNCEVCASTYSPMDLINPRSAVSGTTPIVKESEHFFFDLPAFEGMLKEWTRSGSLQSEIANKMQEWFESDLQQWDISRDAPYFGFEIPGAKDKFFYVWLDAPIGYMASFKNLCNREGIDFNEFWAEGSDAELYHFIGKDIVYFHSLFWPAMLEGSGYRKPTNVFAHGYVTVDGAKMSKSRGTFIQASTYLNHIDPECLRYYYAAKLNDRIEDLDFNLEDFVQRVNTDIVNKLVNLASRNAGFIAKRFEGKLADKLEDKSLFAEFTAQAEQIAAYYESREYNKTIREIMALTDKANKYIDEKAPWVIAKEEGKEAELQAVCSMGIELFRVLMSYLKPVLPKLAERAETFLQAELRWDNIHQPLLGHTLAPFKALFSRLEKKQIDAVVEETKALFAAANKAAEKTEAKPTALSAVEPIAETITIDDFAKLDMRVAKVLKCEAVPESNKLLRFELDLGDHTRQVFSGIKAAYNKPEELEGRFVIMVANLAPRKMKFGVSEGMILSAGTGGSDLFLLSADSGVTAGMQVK

[9] = molecular target: E. coli MetG (Escherichia coli, UniProt P00959); assay: biochemical
Sequence of E. coli MetG (P00959 whole entry, looked up): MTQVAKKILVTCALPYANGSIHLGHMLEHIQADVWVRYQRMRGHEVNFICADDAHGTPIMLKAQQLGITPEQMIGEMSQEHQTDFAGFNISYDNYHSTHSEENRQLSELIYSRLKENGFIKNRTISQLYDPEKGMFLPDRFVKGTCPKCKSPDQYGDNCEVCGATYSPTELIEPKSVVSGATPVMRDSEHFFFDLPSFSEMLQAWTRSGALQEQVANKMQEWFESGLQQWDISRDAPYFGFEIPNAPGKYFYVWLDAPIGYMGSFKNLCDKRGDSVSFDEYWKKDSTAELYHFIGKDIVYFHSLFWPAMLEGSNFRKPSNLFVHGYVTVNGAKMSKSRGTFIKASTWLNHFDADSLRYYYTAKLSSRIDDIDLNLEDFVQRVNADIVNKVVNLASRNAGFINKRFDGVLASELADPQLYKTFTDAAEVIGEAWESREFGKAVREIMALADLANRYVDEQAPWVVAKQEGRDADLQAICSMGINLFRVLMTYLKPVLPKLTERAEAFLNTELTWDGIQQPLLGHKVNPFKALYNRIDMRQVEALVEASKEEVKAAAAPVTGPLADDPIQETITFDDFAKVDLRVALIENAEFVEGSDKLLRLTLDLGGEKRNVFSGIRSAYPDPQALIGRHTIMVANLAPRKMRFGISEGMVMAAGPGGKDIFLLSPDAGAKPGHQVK

[10] = molecular target: S. pneumoniae MetS2 (Streptococcus pneumoniae, UniProt A2MSJ4); assay: biochemical
Sequence of S. pneumoniae MetS2 (A2MSJ4 1-545): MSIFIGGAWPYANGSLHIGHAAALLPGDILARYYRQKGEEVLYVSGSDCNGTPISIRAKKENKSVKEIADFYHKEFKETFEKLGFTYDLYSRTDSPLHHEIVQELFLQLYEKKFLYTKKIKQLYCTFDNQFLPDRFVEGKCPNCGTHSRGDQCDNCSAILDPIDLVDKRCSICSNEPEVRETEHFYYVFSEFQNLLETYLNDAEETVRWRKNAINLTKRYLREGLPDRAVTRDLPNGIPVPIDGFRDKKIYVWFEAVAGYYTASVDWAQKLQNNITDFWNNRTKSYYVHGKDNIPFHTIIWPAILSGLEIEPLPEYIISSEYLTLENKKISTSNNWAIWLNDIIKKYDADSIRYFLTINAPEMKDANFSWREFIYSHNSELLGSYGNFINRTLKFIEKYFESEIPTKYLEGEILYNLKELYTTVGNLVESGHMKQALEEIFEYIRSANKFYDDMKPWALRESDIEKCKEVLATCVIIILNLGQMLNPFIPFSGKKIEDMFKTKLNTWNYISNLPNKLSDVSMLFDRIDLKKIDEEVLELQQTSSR

[11] = test system: staphylococci; details: cited from earlier work
[12] = RN4220, pYH4 vector control, +aTc inducer
[13] = RN4220, pYH4 vector control, −aTc inducer
[14] = 1079077 (MRSA), 10^10 CFU, five days
[15] = ATCC 29213 (MSSA), 10^10 CFU, five days
[16] = ATCC 43300 (MRSA), 10^10 CFU, five days
[17] = LZ10 (MRSA), 10^10 CFU, five days
[18] = S. aureus, including MSSA and MRSA strains
[19] = ATCC 29213 / MSSA, read-out: MIC After 20 passages, S. aureus ATCC29213, MSSA, MupS
[20] = ATCC 29213 / MSSA, read-out: MIC Initial, S. aureus ATCC29213, MSSA, MupS
[21] = ATCC 43300 / MRSA, read-out: MIC After 20 passages, S. aureus ATCC43300, MRSA, MupS
[22] = MRSA / NRS 103, read-out: MIC After 20 passages, S. aureus NRS103, MRSA, MupS
[23] = MRSA / NRS 103, read-out: MIC Initial, S. aureus NRS103, MRSA, MupS
[24] = MRSA, read-out: MIC After 20 passages, S. aureus 10-420, MRSA, HL-MupR
[25] = MRSA, read-out: MIC After 20 passages, S. aureus 25-670, MRSA, HL-MupR
[26] = MRSA, read-out: MIC After 20 passages, S. aureus 31-1334, MRSA, LL-MupR
[27] = MRSA, read-out: MIC After 20 passages, S. aureus 87-2797, MRSA, HL-MupR
[28] = MRSA, read-out: MIC After 20 passages, S. aureus 1079077, MRSA, MupS
[29] = MRSA, read-out: MIC After 20 passages, S. aureus LZ1, MRSA, HL-MupR
[30] = MRSA, read-out: MIC After 20 passages, S. aureus LZ6, MRSA, HL-MupR
[31] = MRSA, read-out: MIC After 20 passages, S. aureus LZ10, MRSA, MupS
[32] = MRSA, read-out: MIC Initial, S. aureus 10-420, MRSA, HL-MupR
[33] = MRSA, read-out: MIC Initial, S. aureus 25-670, MRSA, HL-MupR
[34] = MRSA, read-out: MIC Initial, S. aureus 31-1334, MRSA, LL-MupR
[35] = MRSA, read-out: MIC Initial, S. aureus 87-2797, MRSA, HL-MupR
[36] = MRSA, read-out: MIC Initial, S. aureus 1079077, MRSA, MupS
[37] = MRSA, read-out: MIC Initial, S. aureus LZ1, MRSA, HL-MupR
[38] = MRSA, read-out: MIC Initial, S. aureus LZ6, MRSA, HL-MupR
[39] = MRSA, read-out: MIC Initial, S. aureus LZ10, MRSA, MupS
[40] = MSSA / NRS 107, read-out: MIC After 20 passages, S. aureus NRS107, MSSA, HL-MupR
[41] = MSSA / NRS 107, read-out: MIC Initial, S. aureus NRS107, MSSA, HL-MupR
[42] = MSSA, read-out: MIC After 20 passages, S. aureus 1079101, MSSA, HL-MupR
[43] = MSSA, read-out: MIC Initial, S. aureus 1079101, MSSA, HL-MupR

C=C(F)c1sc(CNCCCNc2cc(=O)c3ccccc3[nH]2)c(C)c1Br [Compound 1, N-(4-bromo-5-(1-fluorovinyl)-3-methylthiophen-2-ylmethyl)-N′-(1H-quinolin-4-one)propane-1,3-diamine]
shift in the MIC upon induction of MRS expression ([1]; RN4220 (pYH4-MRS)): 8 fold
MIC ([1]; RN4220, pYH4-MRS, +aTc inducer): 1 µg/mL (≈ 2.22 µM)
MIC ([1]; RN4220, pYH4-MRS, −aTc inducer): 0.12 µg/mL (≈ 0.266 µM)
MIC [1, 12]: 0.008 µg/mL (≈ 0.0178 µM)
MIC [1, 13]: 0.008 µg/mL (≈ 0.0178 µM)
initial MIC range [2]: 0.03 to 0.5 µg/mL
MIC [2]: 0.5 µg/mL (≈ 1.11 µM)
MIC ([2]; ATCC 29213 / MSSA): 0.03 µg/mL (≈ 0.0666 µM)
MIC ([2]; ATCC 43300 / MRSA): 0.06 µg/mL (≈ 0.133 µM)
MPC [3, 14]: 32 µg/mL
MPC [3, 15]: 32 µg/mL
MPC [3, 16]: 32 µg/mL
MPC [3, 17]: 32 µg/mL
MPC [3, 18]: 32 µg/mL
MIC [4, 19]: 4 µg/mL (≈ 8.88 µM)
MIC [4, 20]: 0.06 µg/mL (≈ 0.133 µM)
MIC [4, 21]: 1 µg/mL (≈ 2.22 µM)
MIC [4, 22]: 1 µg/mL (≈ 2.22 µM)
MIC [4, 23]: 0.12 µg/mL (≈ 0.266 µM)
MIC [4, 24]: 8 µg/mL (≈ 17.8 µM)
MIC [4, 25]: 8 µg/mL (≈ 17.8 µM)
MIC [4, 26]: 8 µg/mL (≈ 17.8 µM)
MIC [4, 27]: 16 µg/mL (≈ 35.5 µM)
MIC [4, 28]: 16 µg/mL (≈ 35.5 µM)
MIC [4, 29]: 0.06 µg/mL (≈ 0.133 µM)
MIC [4, 30]: 2 µg/mL (≈ 4.44 µM)
MIC [4, 31]: 0.5 µg/mL (≈ 1.11 µM)
MIC [4, 32]: 0.06 µg/mL (≈ 0.133 µM)
MIC [4, 33]: 0.06 µg/mL (≈ 0.133 µM)
MIC [4, 34]: 0.03 µg/mL (≈ 0.0666 µM)
MIC [4, 35]: 0.03 µg/mL (≈ 0.0666 µM)
MIC [4, 36]: 0.25 µg/mL (≈ 0.555 µM)
MIC [4, 37]: 0.06 µg/mL (≈ 0.133 µM)
MIC [4, 38]: 0.06 µg/mL (≈ 0.133 µM)
MIC [4, 39]: 0.03 µg/mL (≈ 0.0666 µM)
MIC [4, 40]: 0.5 µg/mL (≈ 1.11 µM)
MIC [4, 41]: 0.015 µg/mL (≈ 0.0333 µM)
MIC [4, 42]: 16 µg/mL (≈ 35.5 µM)
MIC [4, 43]: 0.06 µg/mL (≈ 0.133 µM)
MIC range after twenty serial passages ([5]; strains of Table 4): 0.06 to 16 µg/mL
MIC initial range ([5]; strains of Table 4, before passages): 0.015 to 0.06 µg/mL
MIC [6]: 2 µg/mL (≈ 4.44 µM)
IC50 [7]: < 1.9 nM
IC50 [8]: 25 nM
IC50 [9]: 307 nM
IC50 [10]: > 500 nM

C/C(=C\C(=O)OCCCCCCCCC(=O)O)C[C@@H]1OC[C@H](C[C@@H]2O[C@H]2[C@@H](C)[C@H](C)O)[C@@H](O)[C@H]1O [Mupirocin]
MIC change upon MRS overexpression [1]: remained unchanged
MIC ([1]; RN4220, pYH4-MRS, +aTc inducer): 0.06 µg/mL (≈ 0.12 µM)
MIC ([1]; RN4220, pYH4-MRS, −aTc inducer): 0.06 µg/mL (≈ 0.12 µM)
MIC [1, 12]: 0.06 µg/mL (≈ 0.12 µM)
MIC [1, 13]: 0.06 µg/mL (≈ 0.12 µM)
MIC ([2]; ATCC 29213 / MSSA): 0.12 µg/mL (≈ 0.24 µM)
MIC ([2]; ATCC 43300 / MRSA): 0.12 µg/mL (≈ 0.24 µM)
MPC [3, 14]: >32 µg/mL
MPC [3, 15]: 32 µg/mL
MPC [3, 16]: 32 µg/mL
MPC [3, 17]: >32 µg/mL
MPC [3, 18]: ≥ 32 µg/mL
MIC [4, 19]: 0.5 µg/mL (≈ 0.999 µM)
MIC [4, 20]: 0.06 µg/mL (≈ 0.12 µM)
MIC [4, 21]: 8 µg/mL (≈ 16 µM)
MIC ([4]; ATCC 43300 / MRSA, read-out: MIC Initial, S. aureus ATCC43300, MRSA, MupS): 0.06 µg/mL (≈ 0.12 µM)
MIC [4, 22]: 1 µg/mL (≈ 2 µM)
MIC [4, 23]: 0.25 µg/mL (≈ 0.499 µM)
MIC [4, 24]: 4100 µg/mL (≈ 8180 µM)
MIC [4, 25]: 4100 µg/mL (≈ 8180 µM)
MIC [4, 26]: 128 µg/mL (≈ 256 µM)
MIC [4, 27]: 4100 µg/mL (≈ 8180 µM)
MIC [4, 28]: 1 µg/mL (≈ 2 µM)
MIC [4, 29]: 4100 µg/mL (≈ 8180 µM)
MIC [4, 30]: 4100 µg/mL (≈ 8180 µM)
MIC [4, 31]: 2 µg/mL (≈ 3.99 µM)
MIC [4, 32]: 4100 µg/mL (≈ 8180 µM)
MIC [4, 33]: 2050 µg/mL (≈ 4090 µM)
MIC [4, 34]: 32 µg/mL (≈ 63.9 µM)
MIC [4, 35]: 2050 µg/mL (≈ 4090 µM)
MIC [4, 36]: 0.5 µg/mL (≈ 0.999 µM)
MIC [4, 37]: 4100 µg/mL (≈ 8180 µM)
MIC [4, 38]: 4100 µg/mL (≈ 8180 µM)
MIC [4, 39]: 0.25 µg/mL (≈ 0.499 µM)
MIC [4, 40]: 4100 µg/mL (≈ 8180 µM)
MIC [4, 41]: 4100 µg/mL (≈ 8180 µM)
MIC [4, 42]: 4100 µg/mL (≈ 8180 µM)
MIC [4, 43]: 4100 µg/mL (≈ 8180 µM)
MIC range after 20 passages ([5]; mupirocin-susceptible strains): 0.5 to 8 µg/mL
MIC range initial ([5]; mupirocin-susceptible strains): 0.06 to 0.5 µg/mL
MIC ([5]; read-out: MIC after 20 passages): 128 µg/mL (≈ 256 µM)
MIC ([5]; read-out: MIC initial): 32 µg/mL (≈ 63.9 µM)
MIC ([11]; high-level mupirocin resistance): > 256 µg/mL
MIC ([11]; low-level mupirocin resistance): 8 to 256 µg/mL
